Earlier results in patent US4101650A, “Pepstatin floating minicapsules” (Zaidan Hojin Biseibutsu Kagaku Kenkyu Kai, priority 1977, dated 1978).
Where a SMILES comes first, the peptide text is derived from it. [ ]: non-standard residue; d: D form. The star is where a group is joined. Sta = CC(C)C[C@H](N)[C@@H](O)CC(=O)O; Isovaleryl = CC(C)CC(=O)*

Assays:
cathepsin D = cathepsin D (Homo sapiens, UniProt P07339)
renin = target: T1, renin (Homo sapiens, UniProt P00797)
T1 sequence (P00797 67-406): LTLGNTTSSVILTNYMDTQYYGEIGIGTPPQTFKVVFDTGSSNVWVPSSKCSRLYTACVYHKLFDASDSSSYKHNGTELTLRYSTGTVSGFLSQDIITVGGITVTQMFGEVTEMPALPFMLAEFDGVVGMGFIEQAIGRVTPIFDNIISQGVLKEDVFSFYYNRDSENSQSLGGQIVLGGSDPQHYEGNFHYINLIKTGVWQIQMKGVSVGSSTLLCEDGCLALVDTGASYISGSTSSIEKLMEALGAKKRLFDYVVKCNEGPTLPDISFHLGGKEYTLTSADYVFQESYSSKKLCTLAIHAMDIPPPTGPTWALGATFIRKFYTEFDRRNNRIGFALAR

cathepsin D, sequence (P07339 65-412, species assumed): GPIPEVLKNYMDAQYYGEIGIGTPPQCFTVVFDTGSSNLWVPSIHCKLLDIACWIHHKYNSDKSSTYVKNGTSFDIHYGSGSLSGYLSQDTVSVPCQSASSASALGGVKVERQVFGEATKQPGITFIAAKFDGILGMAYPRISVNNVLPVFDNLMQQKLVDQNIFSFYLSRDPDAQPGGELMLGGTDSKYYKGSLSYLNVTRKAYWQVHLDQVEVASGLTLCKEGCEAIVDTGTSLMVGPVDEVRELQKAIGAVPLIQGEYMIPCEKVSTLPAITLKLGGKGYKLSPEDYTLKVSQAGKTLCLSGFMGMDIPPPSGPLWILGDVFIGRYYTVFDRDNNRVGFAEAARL

## CC(C)CC(=O)N[C@H](C(=O)N[C@H](C(=O)N[C@@H](CC(C)C)[C@@H](O)CC(=O)N[C@@H](C)C(=O)N[C@@H](CC(C)C)[C@@H](O)CC(=O)O)C(C)C)C(C)C [Pepstatin, RCO-L-Val-L-Val-AHMHA-L-Ala-AHMHA] (Isovaleryl-VV[Sta]A[Sta]-OH)
Cathepsin D
  inhibition of cathepsin D: very strongly
renin
  inhibition of renin: relative strong inhibiton
pepsin
  inhibition of pepsin: very strongly
